Assay results published in article PMC11274883, “Anticancer Effect of Pt^[sequence], Pt^II5MESS, Pt^II56MESS and Their Platinum(IV)-Dihydroxy Derivatives against Triple-Negative Breast Cancer and Cisplatin-Resistant Colorectal Cancer” (Cancers, 2024).

Tests used:
HT29 cells = experiment: Cellular localisation of Pt (fractionation, ICP-MS); assay type: cell-based; settings: HT29, 3 µM, 24 h
Experimental: (§1) MDA−MB−231 and HT29 cells were seeded at a final concentration of 10^6 cells/well in 6-well plates and incubated overnight. Cells were then treated with 3 µM of either Pt^II or Pt^IV complexes for 24 h. The media was next removed, and cells were washed three times with ice-cold PBS. Then the cells were trypsinised. The isolation of individual fractions was carried out using the Fraction-PREP Cell Fractionation kit (ab288085, Abcam, Cambridge, MA, USA). The cell pellet was resuspended in ice-cold PBS and moved to Eppendorf tubes to spin for 5 min at 700× g and supernatant was removed. The pellet was then resuspended in 400 µL of cytosol extraction buffer mix and incubated for 20 min on ice. Next, samples were centrifuged at 700× g for 10 min and the supernatant was collected as the cytosolic fraction. The pellet was then resuspended in 400 µL of ice-cold membrane A extraction buffer mix and vortexed for 10 s, after which membrane B extraction buffer mix was added and incubated on ice for 1 min. The sample was then vortexed and centrifuged for 5 min at 1000× g. […] The pellet was then resuspended in 200 µL of ice-cold nuclear extraction buffer, vortexed for 20 s and then incubated on ice for 40 min with constant vortexing every 10 min. The samples were then centrifuged for 10 min at maximum speed. […] Platinum cell localisation was then measured via ICP-MS, as described in Section 2.5.

MDA−MB−231 cells = experiment: as above; assay type: cell-based; settings: MDA−MB−231, 3 µM, 24 h
Experimental: as §1

## N.N.[Cl][Pt][Cl] [Cisplatin, cisplatin]
HT29 cells
  subcellular fraction with main platinum accumulation: membrane/particulate fraction
MDA−MB−231 cells
  subcellular fraction with main platinum accumulation: membrane/particulate fraction
